Measured values taken from ChEMBL document CHEMBL4371060, “Identification of fluorinated (R)-(-)-aporphine derivatives as potent and selective ligands at serotonin 5-HT2C receptor” (Bioorg Med Chem Lett, 2019).

Key:
[1] = target: T1, 5-hydroxytryptamine receptor 2C (Homo sapiens, UniProt P28335); assay: Displacement of [3H]mesulergine from 5HT2C receptor (unknown origin) expressed in HEK293T cell membranes
T1 sequence (P28335 whole entry): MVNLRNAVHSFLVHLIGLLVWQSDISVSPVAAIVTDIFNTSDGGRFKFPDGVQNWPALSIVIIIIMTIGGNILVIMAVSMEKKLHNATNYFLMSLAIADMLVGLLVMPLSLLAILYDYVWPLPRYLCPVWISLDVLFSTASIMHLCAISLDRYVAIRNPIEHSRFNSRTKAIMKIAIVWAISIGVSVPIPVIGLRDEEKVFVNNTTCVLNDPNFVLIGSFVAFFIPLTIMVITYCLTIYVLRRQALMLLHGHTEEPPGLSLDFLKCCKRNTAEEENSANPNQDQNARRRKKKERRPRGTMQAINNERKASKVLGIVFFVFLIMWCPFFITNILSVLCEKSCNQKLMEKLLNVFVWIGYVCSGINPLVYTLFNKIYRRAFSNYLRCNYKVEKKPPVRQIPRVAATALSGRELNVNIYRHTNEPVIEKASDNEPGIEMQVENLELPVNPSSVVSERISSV

[2] = target: 5-hydroxytryptamine receptor 2A (Homo sapiens, UniProt P28223); assay: Displacement of [3H]ketanserin from 5HT2A receptor (unknown origin) expressed in HEK293T cell membranes
5-hydroxytryptamine receptor 2A, sequence (P28223 whole entry): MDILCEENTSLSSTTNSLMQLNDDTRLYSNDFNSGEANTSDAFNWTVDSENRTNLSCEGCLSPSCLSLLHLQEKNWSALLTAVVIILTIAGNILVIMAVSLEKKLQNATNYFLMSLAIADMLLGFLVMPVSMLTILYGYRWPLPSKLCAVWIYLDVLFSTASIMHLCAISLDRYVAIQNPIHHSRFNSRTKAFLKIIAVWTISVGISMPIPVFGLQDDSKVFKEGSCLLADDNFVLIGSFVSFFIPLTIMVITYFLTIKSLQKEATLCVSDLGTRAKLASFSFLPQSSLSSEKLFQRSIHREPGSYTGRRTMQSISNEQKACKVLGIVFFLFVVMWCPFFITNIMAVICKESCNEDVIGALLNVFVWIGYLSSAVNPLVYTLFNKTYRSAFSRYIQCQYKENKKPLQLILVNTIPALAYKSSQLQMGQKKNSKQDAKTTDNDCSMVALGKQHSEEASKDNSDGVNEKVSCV

[3] = target: 5-hydroxytryptamine receptor 2B (Homo sapiens, UniProt P41595); assay: Displacement of [3H]LSD from 5HT2B receptor (unknown origin) expressed in HEK293 cell membranes
5-hydroxytryptamine receptor 2B, sequence (P41595 whole entry): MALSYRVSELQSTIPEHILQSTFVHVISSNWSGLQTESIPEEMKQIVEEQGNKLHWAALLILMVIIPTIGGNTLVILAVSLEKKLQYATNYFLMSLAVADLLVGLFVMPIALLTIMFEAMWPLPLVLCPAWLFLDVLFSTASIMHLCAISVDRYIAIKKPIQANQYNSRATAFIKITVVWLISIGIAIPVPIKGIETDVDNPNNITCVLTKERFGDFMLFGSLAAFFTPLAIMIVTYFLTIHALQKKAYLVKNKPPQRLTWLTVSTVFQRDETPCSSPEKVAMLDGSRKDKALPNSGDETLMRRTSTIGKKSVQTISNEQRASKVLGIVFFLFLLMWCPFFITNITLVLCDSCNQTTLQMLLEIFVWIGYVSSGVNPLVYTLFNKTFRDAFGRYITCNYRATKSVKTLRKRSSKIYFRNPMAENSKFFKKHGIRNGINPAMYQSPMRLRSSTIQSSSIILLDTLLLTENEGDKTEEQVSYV

[4] = Selectivity ratio of Ki for displacement of [3H]DOI from recombinant human 5HT2B receptor expressed in HEK293T cell membranes to Ki for displacement of [3H]DOI from recombinant human 5HT2C receptor expressed in HEK293T cell membranes
[5] = target: Serotonin 2 receptors; 5-HT2a & 5-HT2c (Homo sapiens) (UniProt P28223+P28335); assay: Selectivity ratio of Ki for displacement of [3H]ketanserin from 5HT2A receptor (unknown origin) expressed in HEK293T cell membranes to Ki for displacement of [3H]mesulergine from 5HT2C receptor (unknown origin) expressed in HEK293T cell membranes
Serotonin 2 receptors; 5-HT2a & 5-HT2c (Homo sapiens), sequence (P28223 whole entry, looked up, one chain of several): as the sequence (P28223 whole entry) above

Homo sapiens = species on record: Homo sapiens; assay: Selectivity ratio of Ki for displacement of [3H]LSD from 5HT2B receptor (unknown origin) expressed in HEK293 cell membranes to Ki for displacement of [3H]mesulergine from 5HT2C receptor (unknown origin) expressed in HEK293T cell membranes

| SMILES | Ki [1] | Ki [2] | Ki [3] | Ki [4] | Ratio Ki [5] | Ratio Ki (Homo sapiens) |
| --- | --- | --- | --- | --- | --- | --- |
| CCCN1CCc2cc(OC)cc3c2[C@H]1Cc1cccc(OCCF)c1-3 | > 10000 nM | > 10000 nM | 3040 nM | – | – | – |
| C[C@H]1CNCCc2ccc(Cl)cc21 [LORCASERIN] | – | – | – | 12 nM | – | – |
| CCCN1CCc2cc(OC)cc3c2[C@H]1Cc1cccc(OC(=O)c2ccc(F)cc2)c1-3 | 24 nM | 414 nM | 106 nM | – | 17 | 4.4 |
| COc1cc2c3c(c1)-c1c(cccc1OCCCF)C[C@H]3N(C)CC2 | 338 nM | 434 nM | 422 nM | – | 1.3 | 1.2 |
| COc1cc2c3c(c1)-c1c(cccc1OCc1ccc(F)cc1)C[C@H]3N(C)CC2 | > 10000 nM | 2310 nM | 2680 nM | – | – | – |
| CCCN1CCc2cc(OC)cc3c2[C@H]1Cc1cccc(OCc2ccc(F)cc2)c1-3 | > 10000 nM | > 10000 nM | > 10000 nM | – | – | – |
| COc1cc2c3c(c1)-c1c(cccc1OCCF)C[C@H]3N(C)CC2 | 343 nM | 1140 nM | 552 nM | – | 3.3 | 1.6 |
| COc1cc2c3c(c1)-c1c(cccc1OC(=O)c1ccc(F)cc1)C[C@H]3N(C)CC2 | 32 nM | 450 nM | 102 nM | – | 14 | 3.2 |
| CCCN1CCc2cc(OC)cc3c2[C@H]1Cc1cccc(OCCCF)c1-3 | > 10000 nM | > 10000 nM | > 10000 nM | – | – | – |
